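How tested: cells in 96-well plates exposed to compound for 48 hours at five concentrations. At the TGI there is no net growth.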
Experiments:
Assay in all cases: NCI anticancer screen, dose series, 48 h
786-0 renal = test system: 786-0 renal
A549 NSCLC = test system: A549 NSCLC
ACHN renal = test system: ACHN renal
HCC-2998 colon = test system: HCC-2998 colon
HCT-15 colon = test system: HCT-15 colon
HL-60(TB) leukemia = test system: HL-60(TB) leukemia
HS 578T breast = test system: HS 578T breast
HT29 colon = test system: HT29 colon
IGROV1 ovarian = test system: IGROV1 ovarian
KM12 colon = test system: KM12 colon
MALME-3M melanoma = test system: MALME-3M melanoma
MDA-N = test system: MDA-N
OVCAR-5 ovarian = test system: OVCAR-5 ovarian
OVCAR-8 ovarian = test system: OVCAR-8 ovarian
RXF 393 renal = test system: RXF 393 renal
SF-295 CNS = test system: SF-295 CNS
SK-MEL-5 melanoma = test system: SK-MEL-5 melanoma
SK-OV-3 ovarian = test system: SK-OV-3 ovarian
UACC-257 melanoma = test system: UACC-257 melanoma
UACC-62 melanoma = test system: UACC-62 melanoma

| Structure (SMILES) | TGI (786-0 renal) [µM] | TGI (A549 NSCLC) [µM] | TGI (ACHN renal) [µM] | TGI (HCC-2998 colon) [µM] | TGI (HCT-15 colon) [µM] | TGI (HL-60(TB) leukemia) [µM] | TGI (HS 578T breast) [µM] | TGI (HT29 colon) [µM] | TGI (IGROV1 ovarian) [µM] | TGI (KM12 colon) [µM] | TGI (MALME-3M melanoma) [µM] | TGI (MDA-N) [µM] | TGI (OVCAR-5 ovarian) [µM] | TGI (OVCAR-8 ovarian) [µM] | TGI (RXF 393 renal) [µM] | TGI (SF-295 CNS) [µM] | TGI (SK-MEL-5 melanoma) [µM] | TGI (SK-OV-3 ovarian) [µM] | TGI (UACC-257 melanoma) [µM] | TGI (UACC-62 melanoma) [µM] |
| --- | --- | --- | --- | --- | --- | --- | --- | --- | --- | --- | --- | --- | --- | --- | --- | --- | --- | --- | --- | --- |
| COC(=O)C1=C(OC(=O)/C(=C/c2ccccc2)c2ccc(Cl)cc2Cl)C(C(=O)OC)[C@@]2(O)[C@@H](C(=O)OC)[C@H](C)C[C@@H]1[C@@H]2C(=O)OC (stereo not given in full) | > 100 | > 100 | > 100 | > 100 | > 100 | > 100 | > 100 | > 100 | > 100 | > 100 | > 100 | > 100 | > 100 | > 100 | > 100 | > 100 | > 100 | > 100 | > 100 | > 100 |
| COc1c(=O)cc2cc[nH]c3cc[nH]c1c23 | > 100 | > 100 | > 100 | > 100 | > 100 | > 100 | > 100 | > 100 | > 100 | > 100 | > 100 | > 100 | > 100 | > 100 | > 100 | > 100 | > 100 | > 100 | > 100 | > 100 |
| Cc1cc(C)nc(NS(=O)(=O)c2ccc(Nc3c4ccccc4nc4ccc(C(=O)Nc5ccc(S(N)(=O)=O)cc5)cc34)cc2)n1 | > 100 | > 100 | > 100 | > 100 | > 100 | > 100 | > 100 | > 100 | > 100 | > 100 | > 100 | > 100 | > 100 | > 100 | > 100 | > 100 | > 100 | > 100 | > 100 | > 100 |
| Cc1ccc(-n2[nH]nc(C(N)=O)c2=O)cc1 | > 100 | > 100 | > 100 | > 100 | > 100 | > 100 | > 100 | > 100 | > 100 | > 100 | > 100 | > 100 | > 100 | > 100 | > 100 | > 100 | > 100 | > 100 | > 100 | > 100 |
| COC(=O)[C@@H]1C[C@H]2OC(=O)CC[C@]2(C)O[C@H]1[C@H]1O[C@@](C)(O)CCC[C@H]1C | > 50 | > 50 | > 50 | > 50 | > 50 | 30.6 | > 50 | > 50 | > 50 | > 50 | > 50 | > 50 | > 50 | > 50 | > 50 | > 50 | > 50 | > 50 | > 50 | > 50 |
| O=C1OC(CCCN2CCCCC2)(c2ccccc2)CC12CCCC2 (stereo not given) | > 100 | > 100 | > 100 | > 100 | > 100 | > 100 | > 100 | > 92 | > 100 | > 100 | 55.7 | > 100 | > 100 | > 100 | > 100 | > 100 | 33.8 | > 100 | 48.7 | > 100 |
